These results are taken from PubChem BioAssay AID1259407 (Chemical Carcinogenesis Research Information System (CCRIS), 2018).

Active and inactive are the calls of the source. The rule behind the calls is not given here.

In the data set the test system is CCRIS mutagenicity, Ames/micronucleus/aberration tests. In words: CCRIS mutagenicity studies.
[1] abbreviates: Test System: AMES SALMONELLA TYPHIMURIUM, Strain/Indicator: TA97, Metabolic Activation: NONE, Method: PREINCUBATION
Where [2] appears, read: Test System: AMES SALMONELLA TYPHIMURIUM, Strain/Indicator: TA98, Metabolic Activation: NONE, Method: PREINCUBATION
Setting [3] is: Test System: AMES SALMONELLA TYPHIMURIUM, Strain/Indicator: TA100, Metabolic Activation: NONE, Method: PREINCUBATION
Where [4] appears, read: Test System: AMES SALMONELLA TYPHIMURIUM, Strain/Indicator: TA104, Metabolic Activation: NONE, Method: PREINCUBATION
Where [5] appears, read: Test System: AMES SALMONELLA TYPHIMURIUM, Strain/Indicator: TA1535, Metabolic Activation: NONE, Method: PREINCUBATION
The mark [6] stands for this setting: Test System: AMES SALMONELLA TYPHIMURIUM, Strain/Indicator: TA1537, Metabolic Activation: NONE, Method: PREINCUBATION

`O=C(O)C(=O)O`: the mutagenic call was “inactive; negative” under setting [1]; “inactive; negative” (Test System: AMES SALMONELLA TYPHIMURIUM, Strain/Indicator: TA97, Metabolic Activation: RAT, LIVER, S-9, PHENOBARBITAL AND 5,6-BENZOFLAVONE, Method: PREINCUBATION); “inactive; negative” (Test System: AMES SALMONELLA TYPHIMURIUM, Strain/Indicator: TA97, Metabolic Activation: S-9, Method: PREINCUBATION); “inactive; negative” under setting [2]; “inactive; negative” (Test System: AMES SALMONELLA TYPHIMURIUM, Strain/Indicator: TA98, Metabolic Activation: RAT, LIVER, S-9, PHENOBARBITAL AND 5,6-BENZOFLAVONE, Method: PREINCUBATION); “inactive; negative” (Test System: AMES SALMONELLA TYPHIMURIUM, Strain/Indicator: TA98, Metabolic Activation: RAT, LIVER, S-9, SODIUM PHENOBARBITAL AND 5,6-BENZOFLAVONE, Method: PREINCUBATION). In addition, the mutagenic call under setting [3] is “inactive; negative”; the mutagenic call (Test System: AMES SALMONELLA TYPHIMURIUM, Strain/Indicator: TA100, Metabolic Activation: NONE, Method: PREINCUBATION (11 HR GROWTH PERIOD FOR BACTERIA)) was “active; positive”; the mutagenic call (Test System: AMES SALMONELLA TYPHIMURIUM, Strain/Indicator: TA100, Metabolic Activation: RAT, LIVER, S-9, PCB, Method: PREINCUBATION (11 HR GROWTH PERIOD FOR BACTERIA)) is “inactive; negative”; the mutagenic call (Test System: AMES SALMONELLA TYPHIMURIUM, Strain/Indicator: TA100, Metabolic Activation: RAT, LIVER, S-9, PHENOBARBITAL AND 5,6-BENZOFLAVONE, Method: PREINCUBATION) is “inactive; negative”; the mutagenic call (Test System: AMES SALMONELLA TYPHIMURIUM, Strain/Indicator: TA100, Metabolic Activation: RAT, LIVER, S-9, SODIUM PHENOBARBITAL AND 5,6-BENZOFLAVONE, Method: PREINCUBATION) was “inactive; negative”; the mutagenic call (Test System: AMES SALMONELLA TYPHIMURIUM, Strain/Indicator: TA102, Metabolic Activation: NONE, Method: PREINCUBATION (5, 7 OR 11 HR GROWTH PERIOD FOR BACTERIA)) was “active; positive”. The mutagenic call (Test System: AMES SALMONELLA TYPHIMURIUM, Strain/Indicator: TA102, Metabolic Activation: RAT, LIVER, S-9, PCB, Method: PREINCUBATION (5 OR 7 HR GROWTH PERIOD FOR BACTERIA)) was “inactive; negative”; the mutagenic call (Test System: AMES SALMONELLA TYPHIMURIUM, Strain/Indicator: TA102, Metabolic Activation: RAT, LIVER, S-9, PHENOBARBITAL AND 5,6-BENZOFLAVONE, Method: PREINCUBATION) was “inactive; negative”; the mutagenic call (Test System: AMES SALMONELLA TYPHIMURIUM, Strain/Indicator: TA102, Metabolic Activation: RAT, LIVER, S-9, SODIUM PHENOBARBITAL AND 5,6-BENZOFLAVONE, Method: PREINCUBATION) is “inactive; negative”; the mutagenic call (Test System: AMES SALMONELLA TYPHIMURIUM, Strain/Indicator: TA102, Metabolic Activation: S-9, Method: PREINCUBATION) is “inactive; negative”; the mutagenic call under setting [4] was “inactive; negative”; the mutagenic call (Test System: AMES SALMONELLA TYPHIMURIUM, Strain/Indicator: TA104, Metabolic Activation: RAT, LIVER, S-9, PHENOBARBITAL AND 5,6-BENZOFLAVONE, Method: PREINCUBATION) was “inactive; negative”. Further, the mutagenic call reads like this: (Test System: AMES SALMONELLA TYPHIMURIUM, Strain/Indicator: TA104, Metabolic Activation: RAT, LIVER, S-9, SODIUM PHENOBARBITAL AND 5,6-BENZOFLAVONE, Method: PREINCUBATION) “inactive; negative”; under setting [5], “inactive; negative”; (Test System: AMES SALMONELLA TYPHIMURIUM, Strain/Indicator: TA1535, Metabolic Activation: RAT, LIVER, S-9, SODIUM PHENOBARBITAL AND 5,6-BENZOFLAVONE, Method: PREINCUBATION) “inactive; negative”; under setting [6], “inactive; negative”; (Test System: AMES SALMONELLA TYPHIMURIUM, Strain/Indicator: TA1537, Metabolic Activation: RAT, LIVER, S-9, SODIUM PHENOBARBITAL AND 5,6-BENZOFLAVONE, Method: PREINCUBATION) “inactive; negative”; (Test System: E. COLI, Strain/Indicator: WP2UVRA/PKM101, Metabolic Activation: NONE, Method: PREINCUBATION) “inactive; negative”. The mutagenic call is, setting by setting: (Test System: E. COLI, Strain/Indicator: WP2UVRA/PKM101, Metabolic Activation: RAT, LIVER, S-9, SODIUM PHENOBARBITAL AND 5,6-BENZOFLAVONE, Method: PREINCUBATION) “inactive; negative”; (Test System: E. COLI, Strain/Indicator: WP2UVRA, Metabolic Activation: NONE, Method: PREINCUBATION) “inactive; negative”; (Test System: E. COLI, Strain/Indicator: WP2UVRA, Metabolic Activation: RAT, LIVER, S-9, SODIUM PHENOBARBITAL AND 5,6-BENZOFLAVONE, Method: PREINCUBATION) “inactive; negative”.

`O=CC(Br)CBr` (stereo not drawn): the mutagenic call is, setting by setting: under setting [3], “active; positive”; (Test System: AMES SALMONELLA TYPHIMURIUM, Strain/Indicator: TA100, Metabolic Activation: RAT, LIVER, MICROSOMES, Method: PREINCUBATION) “active; positive”; (Test System: UDS RAT HEPATOCYTES, Strain/Indicator: THY INCORP, Metabolic Activation: NONE) “inactive; negative”.

In the case of `O=[N+]([O-])c1ccc2c(c1)NCC2`, the mutagenic call (Test System: AMES SALMONELLA TYPHIMURIUM, Strain/Indicator: TA98, Metabolic Activation: NONE, Method: STANDARD PLATE) was “active; positive”.

Take `C=C1CC(=O)O1`: the mutagenic call under setting [2] is “inactive; negative”; the mutagenic call (Test System: AMES SALMONELLA TYPHIMURIUM, Strain/Indicator: TA98, Metabolic Activation: RAT LIVER S-9, PHENOBARBITAL AND BETA-NAPHTHOFLAVONE, Method: PREINCUBATION) was “inactive; negative”; the mutagenic call under setting [3] was “inactive; negative”; the mutagenic call (Test System: AMES SALMONELLA TYPHIMURIUM, Strain/Indicator: TA100, Metabolic Activation: RAT LIVER S-9, PHENOBARBITAL AND BETA-NAPHTHOFLAVONE, Method: PREINCUBATION) was “inactive; negative”; the mutagenic call (Test System: AMES SALMONELLA TYPHIMURIUM, Strain/Indicator: TA102, Metabolic Activation: NONE, Method: PREINCUBATION) is “inactive; negative”; the mutagenic call (Test System: AMES SALMONELLA TYPHIMURIUM, Strain/Indicator: TA102, Metabolic Activation: RAT LIVER S-9, PHENOBARBITAL AND BETA-NAPHTHOFLAVONE, Method: PREINCUBATION) is “inactive; negative”. The mutagenic call reads like this: under setting [4], “inactive; negative”; (Test System: AMES SALMONELLA TYPHIMURIUM, Strain/Indicator: TA104, Metabolic Activation: RAT LIVER S-9, PHENOBARBITAL AND BETA-NAPHTHOFLAVONE, Method: PREINCUBATION) “inactive; negative”; under setting [5], “inactive; negative”; (Test System: AMES SALMONELLA TYPHIMURIUM, Strain/Indicator: TA1535, Metabolic Activation: RAT LIVER S-9, PHENOBARBITAL AND BETA-NAPHTHOFLAVONE, Method: PREINCUBATION) “inactive; negative”; under setting [6], “inactive; negative”; (Test System: AMES SALMONELLA TYPHIMURIUM, Strain/Indicator: TA1537, Metabolic Activation: RAT LIVER S-9, PHENOBARBITAL AND BETA-NAPHTHOFLAVONE, Method: PREINCUBATION) “inactive; negative”. Also, the mutagenic call is, setting by setting: (Test System: E.COLI, Strain/Indicator: WP2UVRA/PKM101, Metabolic Activation: NONE, Method: PREINCUBATION) “inactive; negative”; (Test System: E.COLI, Strain/Indicator: WP2UVRA/PKM101, Metabolic Activation: RAT LIVER S-9, PHENOBARBITAL AND BETA-NAPHTHOFLAVONE, Method: PREINCUBATION) “inactive; negative”; (Test System: E.COLI, Strain/Indicator: WP2UVRA, Metabolic Activation: NONE, Method: PREINCUBATION) “inactive; negative”; (Test System: E.COLI, Strain/Indicator: WP2UVRA, Metabolic Activation: RAT LIVER S-9, PHENOBARBITAL AND BETA-NAPHTHOFLAVONE, Method: PREINCUBATION) “inactive; negative”.

For `O[C@H]1[C@H]2O[C@H]2c2c(ccc3ccccc23)[C@@H]1O`, the mutagenic call is, setting by setting: under setting [1], “active; positive”; under setting [2], “active; positive”; under setting [3], “active; positive”; (Test System: AMES SALMONELLA TYPHIMURIUM, Strain/Indicator: TA100, Metabolic Activation: NONE, Method: STANDARD PLATE) “active; positive”; under setting [4], “active; positive”; (Test System: CHINESE HAMSTER V-79, Strain/Indicator: V-79/6-THIOGUANINE, Metabolic Activation: NONE) “active; positive”.
